These results are taken from US20200268831A1, “METHODS FOR ENHANCING IMMUNOTHERAPY IN THE TREATMENT OF CANCER” (The Texas A&M University System, priority 2017, published 2020).

Test [1] relates to MHC class II expressing B cells. The test is described as follows: MHCII-mediated cell death of CpG-activated cells after peptide and anti-MHCII antibody. The test is classed as cell-based, C57/B6 mice. Conditions: CpG activated cells treated with peptide followed by antibodies to MHCII; FIG. 3A. On the procedure:
In a first experiment, animals were injected with complete Freunds adjuvant (CFA) that contains mycobacterial DNA (a well-established TLR activator), or with CFA followed by the competitive antagonist peptide (CLIP inhibitor, SEQ ID NO. 2). Spleens were harvested, stained with CD19 for the detection of B cells, versus CLIP as an indicator of CD19+ cells expressing CLIP. The effect of CLIP inhibitors delivered in vivo on B cells (1A) versus CLIP+B cells (1B) is presented in the bar graphs.
To test the hypothesis that CLIP in the groove prevents MHCII-mediated cell death, we utilized animals that are deficient in CD74 expression (Ii Def mice), thus lacking both the precursor CD74 molecule as well as its proteolytic product, CLIP. […] any increase in cell death following CpG treatment, FIGS. 3A and 3B. […] The absence of CLIP (CLIP knock outs) leaves the cells susceptible to MHC Class II-mediated cell death (3B).

The test system of the next test is MHCII in B cells. Kind of test: competitive displacement of peptides in the peptide binding groove of MHCII in B cells. Conditions: preliminary studies. The test is classed as cell-based. On the procedure:
To confirm the expression of MHCII staining with fluorochrome-conjugated anti-MHCII antibodies, followed by flow cytometric analysis may be performed. The cells are stained for a panel of cell surface molecules, including CD19, CD80 (B7.1), CD86 (B7.2), CD74, MHCII associated invariant peptide (CLIP), and the family of immune check points, including PD1, B7-H2, and B7-H4. As a starting concentration, the cultured cells are treated with a competitive antagonist peptide (CAP) at a concentration of 5 μg/ml, as established from preliminary studies as the optimum concentration for competitive displacement of peptides in the peptide binding groove of MHCII in B cells. […] To characterize these parameters, including levels of MHCII and other cell surface characteristics, the cells are treated with the competitive antagonist peptide at the previously determined optimum concentration, presumably 5 μg/ml, followed by treatment with anti-MHCII antibody as a surrogate for TCR engagement. Susceptibility to MHCII-mediated cell death is assessed by treating the cells with peptide, followed by treatment with anti-MHCII antibody for periods ranging between 3 and 24 hours to determine the optimum kinetics for inducing cell death. […] The capability of CAP peptide treatment to promote MHCII-mediated cell death may be assessed.

In the case of FRIMAVLAS [TPP], the “MHC Class-II-mediated cell death” value in test [1] is reported as “MHC Class-II-mediated cell death can be restored”. Further, the “optimum concentration for competitive displacement of peptides in the peptide binding groove of MHCII” value in the test with MHCII in B cells worked out at 5 µg/mL.
